Source: ChEMBL document CHEMBL1201862, “PubChem BioAssay data set” (2004)
Values belong to the compound of their own block, whether it stands above or below them. The source made the active and inactive calls.

What was measured:
[1] = ZM109 Env clade C HIV-1 fusion inhibitors, dose response, HeLa effector, CEM target cells, luciferase, cherry-pick (AID 652058); assay type: functional, cell-based
[2] = inhibitors of clade B AD8 Env fusion, dose response, cell-based, cherry-pick (AID 652062); assay type: functional;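 further: luciferase signal from cell-cell fusion driven by HIV-1 clade B AD8 Env; potency is for inhibitors of fusion seen as a drop in luminescence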
[3] = target: 1-acylglycerol-3-phosphate O-acyltransferase ABHD5/Perilipin-5 (Homo sapiens, UniProt Q00G26+Q8WTS1); assay: Luminescence-based biochemical high throughput dose response assay for inhibitors of the interaction of the lipase co-activator protein, abhydrolase domain containing 5 (ABHD5) with perilipin-5 (MLDP; PLIN5) (2K validation set). [Related pubchem assays (depositor defined):AID493035, AID493241]
1-acylglycerol-3-phosphate O-acyltransferase ABHD5/Perilipin-5, sequence (Q00G26 whole entry, the tested form may be a part): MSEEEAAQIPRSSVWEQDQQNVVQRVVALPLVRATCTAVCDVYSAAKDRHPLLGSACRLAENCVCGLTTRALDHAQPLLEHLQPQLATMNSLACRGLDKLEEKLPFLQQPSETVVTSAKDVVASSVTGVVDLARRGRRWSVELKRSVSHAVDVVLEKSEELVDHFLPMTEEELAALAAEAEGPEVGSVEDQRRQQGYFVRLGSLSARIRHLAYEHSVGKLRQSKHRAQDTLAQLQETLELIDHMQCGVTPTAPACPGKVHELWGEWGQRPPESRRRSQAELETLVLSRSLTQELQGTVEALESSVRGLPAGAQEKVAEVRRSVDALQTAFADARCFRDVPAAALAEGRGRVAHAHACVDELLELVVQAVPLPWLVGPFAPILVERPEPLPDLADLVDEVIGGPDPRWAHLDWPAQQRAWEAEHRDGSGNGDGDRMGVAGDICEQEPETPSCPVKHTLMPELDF
1-acylglycerol-3-phosphate O-acyltransferase ABHD5/Perilipin-5, sequence (Q8WTS1 whole entry, the tested form may be a part): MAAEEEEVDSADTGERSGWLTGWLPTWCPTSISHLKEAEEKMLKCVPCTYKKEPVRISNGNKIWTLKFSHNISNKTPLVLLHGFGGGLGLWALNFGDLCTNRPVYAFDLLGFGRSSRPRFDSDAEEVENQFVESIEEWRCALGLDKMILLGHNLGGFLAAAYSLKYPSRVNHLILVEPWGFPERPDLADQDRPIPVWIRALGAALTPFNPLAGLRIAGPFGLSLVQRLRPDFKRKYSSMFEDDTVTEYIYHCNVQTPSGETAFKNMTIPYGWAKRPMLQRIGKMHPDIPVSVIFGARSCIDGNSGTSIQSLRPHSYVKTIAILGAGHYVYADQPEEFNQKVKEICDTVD

Mu-type opioid receptor = Mu-type opioid receptor (Homo sapiens, UniProt P35372); assay: HTS Image-Based Screen for Agonists of the MOR Receptor. [Related pubchem assays (depositor defined):AID1777, AID1785, AID1786, AID2133]; assay type: functional;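 further: imaging of beta-arrestin GFP recruitment into spots after receptor activation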
Mu-type opioid receptor, sequence (P35372 whole entry): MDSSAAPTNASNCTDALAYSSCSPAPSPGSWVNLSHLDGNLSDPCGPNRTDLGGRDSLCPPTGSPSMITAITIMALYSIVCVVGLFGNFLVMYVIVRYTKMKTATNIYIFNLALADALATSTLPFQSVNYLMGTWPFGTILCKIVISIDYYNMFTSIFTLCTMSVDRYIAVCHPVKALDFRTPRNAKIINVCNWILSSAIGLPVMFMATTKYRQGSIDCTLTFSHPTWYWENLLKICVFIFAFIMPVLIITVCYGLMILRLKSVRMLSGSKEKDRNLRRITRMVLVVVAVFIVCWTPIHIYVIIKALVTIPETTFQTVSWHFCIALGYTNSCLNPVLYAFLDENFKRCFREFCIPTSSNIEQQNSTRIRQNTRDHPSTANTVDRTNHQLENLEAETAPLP

[4] = Shn3 3'UTR reporter inhibitors, dose response, cell-based, Clone20 osteoblasts, firefly luciferase, cherry-picked (AID 624132); assay type: functional;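 further: firefly luciferase luminescence from reporter carrying the Shn3 3'UTR in osteoblasts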
[5] = target: Kappa-type opioid receptor (Homo sapiens, UniProt P41145); assay type: functional
Kappa-type opioid receptor, sequence (P41145 whole entry): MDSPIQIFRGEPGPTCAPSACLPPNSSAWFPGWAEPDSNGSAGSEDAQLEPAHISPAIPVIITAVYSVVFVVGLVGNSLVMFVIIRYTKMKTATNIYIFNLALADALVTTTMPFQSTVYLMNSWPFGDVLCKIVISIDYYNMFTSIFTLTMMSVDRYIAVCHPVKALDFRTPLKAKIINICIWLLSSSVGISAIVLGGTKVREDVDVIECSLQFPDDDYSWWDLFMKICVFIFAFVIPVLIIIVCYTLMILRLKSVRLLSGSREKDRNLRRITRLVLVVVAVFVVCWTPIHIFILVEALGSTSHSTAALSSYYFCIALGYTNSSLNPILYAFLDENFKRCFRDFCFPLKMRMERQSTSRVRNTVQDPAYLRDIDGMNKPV

[6] = control 3'UTR Renilla luciferase suppression, dose response, counter-screen for Shn3 inhibitor project, cell-based, Clone20-Shn3RL, cherry-picked (AID 624133); assay type: functional
[7] = target: Delta-type opioid receptor (Homo sapiens, UniProt P41143); assay: HTS Image-Based Screen for Antagonists of the DOR Receptor. [Related pubchem assays (depositor defined):AID1777, AID1785, AID1786, AID2133]; assay type: functional;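 further: U2OS cells expressing DOR stimulated with 100 nM SNC80 agonist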
Delta-type opioid receptor, sequence (P41143 whole entry): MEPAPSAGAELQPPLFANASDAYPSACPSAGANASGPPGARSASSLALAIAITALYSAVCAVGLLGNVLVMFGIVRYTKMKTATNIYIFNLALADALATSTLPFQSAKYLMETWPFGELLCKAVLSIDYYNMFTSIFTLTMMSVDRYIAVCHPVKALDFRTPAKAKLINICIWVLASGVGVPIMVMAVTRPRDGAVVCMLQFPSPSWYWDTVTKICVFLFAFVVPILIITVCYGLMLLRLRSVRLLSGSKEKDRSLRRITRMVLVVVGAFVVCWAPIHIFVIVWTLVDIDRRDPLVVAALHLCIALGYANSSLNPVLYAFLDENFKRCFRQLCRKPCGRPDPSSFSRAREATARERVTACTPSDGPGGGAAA

SUMO E1/E2 = SUMO E1/E2 (Homo sapiens, UniProt P63279+Q9UBE0+Q9UBT2); assay: SAR analysis of SUMOylation using HTRF in an in-Vitro dose response assay. [Related pubchem assays (depositor defined):AID2006, AID2011, AID2018, AID2069, AID2658]; assay type: functional
SUMO E1/E2, sequence (Q9UBE0 whole entry): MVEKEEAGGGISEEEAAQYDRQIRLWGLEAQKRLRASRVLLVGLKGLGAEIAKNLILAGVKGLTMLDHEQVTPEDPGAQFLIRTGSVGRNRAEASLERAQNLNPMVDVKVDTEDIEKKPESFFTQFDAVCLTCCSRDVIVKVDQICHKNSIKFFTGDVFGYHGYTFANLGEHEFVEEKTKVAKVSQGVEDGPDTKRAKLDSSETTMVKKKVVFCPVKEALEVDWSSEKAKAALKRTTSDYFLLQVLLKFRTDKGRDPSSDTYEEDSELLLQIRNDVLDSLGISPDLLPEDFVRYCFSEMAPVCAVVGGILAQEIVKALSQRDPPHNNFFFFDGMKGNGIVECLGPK
SUMO E1/E2, sequence (Q9UBT2 whole entry): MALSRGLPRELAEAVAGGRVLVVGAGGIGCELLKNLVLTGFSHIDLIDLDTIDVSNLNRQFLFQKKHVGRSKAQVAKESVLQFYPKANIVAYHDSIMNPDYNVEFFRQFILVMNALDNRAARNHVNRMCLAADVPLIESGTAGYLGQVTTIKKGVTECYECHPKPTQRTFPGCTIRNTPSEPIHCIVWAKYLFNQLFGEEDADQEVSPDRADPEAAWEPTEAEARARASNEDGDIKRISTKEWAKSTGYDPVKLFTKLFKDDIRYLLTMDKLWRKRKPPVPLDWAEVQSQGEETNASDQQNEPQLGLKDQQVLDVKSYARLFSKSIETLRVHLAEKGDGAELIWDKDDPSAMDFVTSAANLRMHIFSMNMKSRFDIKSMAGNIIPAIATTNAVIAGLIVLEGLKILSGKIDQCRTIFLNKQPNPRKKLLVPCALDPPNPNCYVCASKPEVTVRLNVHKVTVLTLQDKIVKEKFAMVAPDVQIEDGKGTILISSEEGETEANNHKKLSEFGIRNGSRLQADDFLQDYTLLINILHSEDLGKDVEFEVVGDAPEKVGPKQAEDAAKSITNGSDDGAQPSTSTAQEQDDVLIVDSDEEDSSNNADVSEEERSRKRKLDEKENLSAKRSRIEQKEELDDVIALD
SUMO E1/E2, sequence (P63279 whole entry): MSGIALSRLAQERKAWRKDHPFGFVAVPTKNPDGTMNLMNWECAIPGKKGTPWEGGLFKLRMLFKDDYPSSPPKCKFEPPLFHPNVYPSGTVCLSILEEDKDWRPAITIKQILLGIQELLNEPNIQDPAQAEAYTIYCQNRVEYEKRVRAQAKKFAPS

[8] = enhancers of respiration in Yfh1-depleted yeast, dose response, Friedreich's ataxia, plus single-dose screen (AID 1465); assay type: functional;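 further: yeast depleted of Yfh1p frataxin homolog grown on glycerol needing respiration; WST-1 tetrazolium dye reduction as measure of cellular dehydrogenase metabolic activity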
[9] = target: Heat shock protein HSP 90-alpha (Homo sapiens, UniProt P07900); assay type: functional, organism-based
[10] = target: T1, Sentrin-specific protease 8 (Homo sapiens, UniProt Q96LD8); assay type: functional;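 further: kinetic enzyme assay of SENP8 cleaving a Nedd8 protein substrate, dose-response confirmation of screening hits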
T1 sequence (Q96LD8 whole entry): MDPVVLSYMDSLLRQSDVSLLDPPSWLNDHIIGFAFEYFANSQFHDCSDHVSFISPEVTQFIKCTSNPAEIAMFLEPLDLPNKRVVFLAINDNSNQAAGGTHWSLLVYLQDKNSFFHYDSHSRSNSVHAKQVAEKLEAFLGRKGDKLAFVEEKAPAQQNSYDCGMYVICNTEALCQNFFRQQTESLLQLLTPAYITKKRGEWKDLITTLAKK

[11] = target: T2, Zinc finger protein mex-5 (Caenorhabditis elegans, UniProt Q9XUB2); assay: MEX-5/TCR-2 RNA interaction inhibitors, dose response, biochemical, C. elegans, fluorescence polarization (AID 1960)
T2 sequence (Q9XUB2 whole entry): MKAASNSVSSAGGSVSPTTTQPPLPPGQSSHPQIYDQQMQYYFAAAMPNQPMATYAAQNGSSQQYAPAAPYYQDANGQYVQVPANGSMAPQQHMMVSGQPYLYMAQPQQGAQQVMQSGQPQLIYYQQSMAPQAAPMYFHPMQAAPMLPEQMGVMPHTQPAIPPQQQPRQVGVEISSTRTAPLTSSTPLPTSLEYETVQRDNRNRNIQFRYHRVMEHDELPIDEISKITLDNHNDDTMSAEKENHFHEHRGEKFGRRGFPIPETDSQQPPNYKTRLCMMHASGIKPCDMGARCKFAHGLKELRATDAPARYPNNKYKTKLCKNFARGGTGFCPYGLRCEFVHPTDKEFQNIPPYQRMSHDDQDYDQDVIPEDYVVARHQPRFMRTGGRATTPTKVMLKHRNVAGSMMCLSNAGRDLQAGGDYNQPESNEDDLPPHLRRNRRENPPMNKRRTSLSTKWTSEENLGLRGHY

[12] = target: T3, Mannose-6-phosphate isomerase (Homo sapiens, UniProt P34949); assay: inhibitors of human PMI, primary screen, biochemical, fluorescence intensity, coupled assay (AID 1209)
T3 sequence (P34949 whole entry): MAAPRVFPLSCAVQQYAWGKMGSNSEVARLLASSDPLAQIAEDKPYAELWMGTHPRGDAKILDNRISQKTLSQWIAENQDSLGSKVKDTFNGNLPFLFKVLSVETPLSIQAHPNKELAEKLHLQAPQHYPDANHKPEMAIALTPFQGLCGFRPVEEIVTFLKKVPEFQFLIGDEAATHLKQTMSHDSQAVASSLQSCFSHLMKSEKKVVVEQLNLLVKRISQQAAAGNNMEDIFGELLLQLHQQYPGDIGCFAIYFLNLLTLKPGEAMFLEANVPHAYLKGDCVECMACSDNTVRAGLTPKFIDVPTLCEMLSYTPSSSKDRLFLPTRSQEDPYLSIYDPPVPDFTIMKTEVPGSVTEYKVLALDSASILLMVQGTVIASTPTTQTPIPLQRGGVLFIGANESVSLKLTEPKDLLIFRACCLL

Compound: O=C1C(=O)c2ccccc2-c2ccccc21 [9,10-PHENANTHRENEQUINONE]
AC50 [1]: 3.1 µM (active)
AC50 [2]: 2.66 µM (active)
IC50 [3]: 6.44 µM (active)

Compound: CCC(=O)OCCNc1cc(Sc2nccn2C)c2nonc2c1[N+](=O)[O-]
EC50 (Mu-type opioid receptor): > 32 µM (inactive)
AC50 [4]: 1.55 µM (active)
IC50 [5]: 22.7 µM
AC50 [6]: 4.16 µM (active)
IC50 [7]: 29.7 µM (inactive)

IC50 (SUMO E1/E2): 10.9 µM (active)
Compound: CCCCn1c(NC(=O)c2ccccc2Cl)c(C#N)c2nc3ccccc3nc21

Compound: O=C1C=C(N(CCO)Cc2ccccc2)c2ccccc2C1=O
EC50 [8]: > 100 µM (active)

Compound: O=C1c2cc(F)ccc2-n2c1nc1ccccc1c2=O
AC50 [9]: 3.73 µM (active)
IC50 [10]: 0.985 µM (active)
EC50 [11]: > 300 µM (not active)

Compound: CCOC(=O)C1=C(c2ccc(OC)cc2)C(=O)c2ccccc2C1=O
IC50 [12]: 42.4 µM (active)
